{"source": "patent US20070059756A1", "about": "“Immunointeractive molecules and their uses in treating subjects suffering from Hev b 5 allergies” (priority 1999, published 2007)", "molecules": {"B1": {"name": "Hev b 5: major allergen in natural rubber latex, highly acidic and proline rich protein of Hevea brasiliensis (protein, listed as Hevea brasiliensis)", "chain": "MASVEVESAATALPKNETPEVTKAEETKTEEPAAPPASEQETADATPEKEEPTAAPAEPEAPAPETEKAEEVEKIEKTEEPAPEADQTTPEEKPAEPEPVAEEEPKHETKETETEAPAAPAEGEKPAEEEKPITEAAETATTEVPVEKTEE"}}, "key": {"[1]": {"tested_on": "latex specific T cell lines", "assay": "Oligoclonal T cell proliferation assay (3H-thymidine incorporation)", "assay_type": "cell-based, human", "parameters": "key to Proliferation inducing (+) or non-inducing (−) peptide: Proliferation inducing and non-inducing peptides are indicated by (+) and (−) respectively; Proliferation inducing and non-inducing peptides are indicated by (+) and (−) respectively", "details": "for Oligoclonal proliferative response: 4 day cultures", "description": "Latex specific T cell lines were isolated using our well established methods for the generation of allergen specific oligoclonal T cell populations (O'Hehir et al., 1987). An initial primary culture was performed for each patient to determine the optimal concentration of LAL for stimulation. For this, peripheral blood mononuclear cells (PBMC) separated from heparinised venous blood by density centrifugation (2×10^5/well) were stimulated with LAL over a concentration range 0.03 to 100 μg/ml, with control cultures of PBMC alone or stimulated with tetanus toxoid. All cultures were maintained in complete medium (RPMI-1640, Gibco Life Technologies supplemented with 2 mmol/L L-glutamine, 100 IU/ml penicillin-streptomycin and 5% screened, heat inactivated human AB serum [Sigma]). […] Therefore, to generate T cell lines, PBMC (2.5×10^6/well) were stimulated for 1 week with LAL at a concentration of 20 μg/ml in 24-well tissue culture plates (Costar, USA). After 7 days, lymphoblasts (1×10^6/well) were restimulated for one week with LAL at a concentration of 20 μg/ml in the presence of an equal number of irradiated (3000 rad) autologous PBMC as antigen presenting cells (APC). On days 2 and 4, cultures were supplemented with Lymphocult-T (5% v/v; Biotest Folex, Germany) and fresh medium. At the end of the second week, lymphoblasts were restimulated for one week with rhev b 5/MBP at a concentration of 20 μg/ml as described above. Oligoclonal T cells were recovered, washed and tested in proliferation and cytokine assays (as described below) either fresh or after cryopreservation in liquid nitrogen. We have previously shown that CD4^+ T cells are preferentially expanded in these cultures.\nOligoclonal T cell blasts (5×10^4) were incubated in 96-well round bottom plates (Linbro, ICN Biomedicals, USA) in triplicate with equal numbers of irradiated APC in the presence of LAL at concentrations ranging from 0.03-100 μg/ml, rHev b 5/MBP (10 and 20 μg/ml), MBP (10 and 20 μg/ml), overlapping peptides of the Hev b 5 sequence (10 and 30 μg/ml), Lymphocult-T (10 IU/ml) or PHA (3 μg/ml). Cultures of T cells and APC in the absence of antigen, T cells alone and APC alone in the absence of antigen were included as controls. After 72 hours cultures were pulsed with 1 μCi of ^3H-thymidine (^3HTdR; Du Pont, NEN) and harvested 12-16 hours later. Proliferation as correlated with ^3HTdR incorporation was measured by liquid scintillation spectroscopy. Results are expressed as mean counts per minute (cpm) for triplicate cultures with standard deviation (SD; ±20% for all experiments)."}, "IL-5": {"tested_on": "IL-5", "assay": "IL-5 production by latex specific oligoclonal T cells (ELISA on culture supernatants)", "assay_type": "cell-based, human", "details": "for IL-5: supernatant at 48 hours", "description": "(§1) Representative stimulatory and non-stimulatory peptides were selected and T cells cultured in triplicate with these peptides. At 48 hours 50 μl of supernatant was harvested from the cultures and IL-5 and IFNγ were assayed by ELISA using paired cytokine antibodies (from Pharmingen Becton Dickinson, USA and Endogen, USA respectively). For this, opaque flat bottom ELISA plates (Nalgene, Nunc International) were coated with 30 μl capture antibody at 2 μg/ml in 0.1 M NaHCO3 pH 8.2 coating buffer overnight at 4° C. After washing three times with PBS/0.5% Tween the wells were blocked with 3% BSA/PBS at room temperature for 2 hours. The plates were washed and 30 μL pooled triplicate culture supernatants added in duplicate. […] Light emission was read immediately on a Lumicount microplate Glow Luminometer (Packard Instrument Company). A standard curve was run each time using known concentrations of standard cytokine samples and the concentrations of IL-S and IFNγ in the culture supernatants calculated accordingly. The lower limit of detection of the IL-5 assay was 20 pg/ml and the lower limit of detection of the IFN-γ assay was 2 pg/ml."}, "IFNγ": {"tested_on": "IFNγ", "assay": "IFNγ production by latex specific oligoclonal T cells (ELISA on culture supernatants)", "assay_type": "cell-based, human", "details": "supernatant at 48 hours", "description": "as §1"}, "IgE": {"tested_on": "IgE", "details": "cited from earlier work"}, "[2]": {"details": "P1 T cell line, peptide 10 μg/ml"}, "[3]": {"details": "P1 T cell line, peptide 30 μg/ml"}, "[4]": {"details": "P2 T cell line, peptide 10 μg/ml"}, "[5]": {"details": "P2 T cell line, peptide 30 μg/ml"}, "[6]": {"details": "P3 T cell line, peptide 10 μg/ml"}, "[7]": {"details": "P3 T cell line, peptide 30 μg/ml"}, "[8]": {"details": "P4 T cell line, peptide 10 μg/ml"}, "[9]": {"details": "P4 T cell line, peptide 30 μg/ml"}}, "data": [{"molecule": "TPEKEEPTAAPAEPEAPAPE [Hev b 5 (46-65)]", "values": [{"measurement": "Proliferation inducing (+) or non-inducing (−) peptide", "setting": "[1]; P1 T cell line", "value": "46-65 (+)"}, {"measurement": "Oligoclonal proliferative response", "setting": "[1]; P1 T cell line, antigen 10 μg/ml", "value": 21.3, "unit": "counts per minute × 10^−3"}, {"measurement": "Oligoclonal proliferative response", "setting": "[1]; P1 T cell line, antigen 30 μg/ml", "value": 19.6, "unit": "counts per minute × 10^−3"}, {"measurement": "Proliferation inducing (+) or non-inducing (−) peptide", "setting": "[1]; P2 T cell line", "value": "46-65 (+)"}, {"measurement": "Oligoclonal proliferative response", "setting": "[1]; P2 T cell line, antigen 10 μg/ml", "value": 13.4, "unit": "counts per minute × 10^−3"}, {"measurement": "Oligoclonal proliferative response", "setting": "[1]; P2 T cell line, antigen 30 μg/ml", "value": 22.6, "unit": "counts per minute × 10^−3"}, {"measurement": "Proliferation inducing (+) or non-inducing (−) peptide", "setting": "[1]; P3 T cell line", "value": "46.65 (+)"}, {"measurement": "Oligoclonal proliferative response", "setting": "[1]; P3 T cell line, antigen 10 μg/ml", "value": 25.8, "unit": "counts per minute × 10^−3"}, {"measurement": "Oligoclonal proliferative response", "setting": "[1]; P3 T cell line, antigen 30 μg/ml", "value": 19.2, "unit": "counts per minute × 10^−3"}, {"measurement": "Proliferation inducing (+) or non-inducing (−) peptide", "setting": "[1]; P4 T cell line", "value": "46-65 (+)"}, {"measurement": "Oligoclonal proliferative response", "setting": "[1]; P4 T cell line, antigen 10 μg/ml", "value": 4.4, "unit": "counts per minute × 10^−3"}, {"measurement": "Oligoclonal proliferative response", "setting": "[1]; P4 T cell line, antigen 30 μg/ml", "value": 5.3, "unit": "counts per minute × 10^−3"}, {"measurement": "Oligoclonal proliferative response", "setting": "[1]; P5 T cell line, antigen 10 μg/ml", "value": 4.9, "unit": "counts per minute × 10^−3"}, {"measurement": "Oligoclonal proliferative response", "setting": "[1]; P5 T cell line, antigen 30 μg/ml", "value": 5.6, "unit": "counts per minute × 10^−3"}, {"measurement": "Oligoclonal proliferative response", "setting": "[1]; P6 T cell line, antigen 10 μg/ml", "value": 1.5, "unit": "counts per minute × 10^−3"}, {"measurement": "Oligoclonal proliferative response", "setting": "[1]; P6 T cell line, antigen 30 μg/ml", "value": 1.2, "unit": "counts per minute × 10^−3"}, {"measurement": "stimulation index", "setting": "[1]; fifth of five donors (patient 5)", "value": 5.6}, {"measurement": "stimulation index", "setting": "[1]; first of five donors with IgE reactivity to rHev b 5/MBP (patient 1)", "value": 5.9}, {"measurement": "donors whose T cells proliferated in response to the peptide", "setting": "[1]; five donors with IgE reactivity to rHev b 5/MBP", "value": "all five donors"}, {"measurement": "stimulation index", "setting": "[1]; fourth of five donors (patient 4)", "value": 5.9}, {"measurement": "stimulation index", "setting": "[1]; second of five donors (patient 2)", "value": 10.8}, {"measurement": "stimulation index", "setting": "[1]; third of five donors (patient 3)", "value": 5.0}, {"measurement": "IL-5/IFNγ ratio", "setting": "IL-5; [2]", "value": 172}, {"measurement": "IL-5", "setting": "IL-5; [2]", "value": 344, "unit": "pg/mL"}, {"measurement": "IL-5/IFNγ ratio", "setting": "IL-5; [3]", "value": 139.5}, {"measurement": "IL-5", "setting": "IL-5; [3]", "value": 279, "unit": "pg/mL"}, {"measurement": "IL-5/IFNγ ratio", "setting": "IL-5; [4]", "value": 3.2}, {"measurement": "IL-5", "setting": "IL-5; [4]", "value": 58, "unit": "pg/mL"}, {"measurement": "IL-5/IFNγ ratio", "setting": "IL-5; [5]", "value": 7.6}, {"measurement": "IL-5", "setting": "IL-5; [5]", "value": 408, "unit": "pg/mL"}, {"measurement": "IL-5/IFNγ ratio", "setting": "IL-5; [6]", "value": 9.8}, {"measurement": "IL-5", "setting": "IL-5; [6]", "value": 3799, "unit": "pg/mL"}, {"measurement": "IL-5/IFNγ ratio", "setting": "IL-5; [7]", "value": 14}, {"measurement": "IL-5", "setting": "IL-5; [7]", "value": 3186, "unit": "pg/mL"}, {"measurement": "IL-5/IFNγ ratio", "setting": "IL-5; [8]", "value": 22.4}, {"measurement": "IL-5", "setting": "IL-5; [8]", "value": 561, "unit": "pg/mL"}, {"measurement": "IL-5/IFNγ ratio", "setting": "IL-5; [9]", "value": 43.2}, {"measurement": "IL-5", "setting": "IL-5; [9]", "value": 519, "unit": "pg/mL"}, {"measurement": "secretion of IL-5 (in words)", "setting": "IL-5; patient 4 T cell line", "value": "secretion of IL-5"}, {"measurement": "IFNγ", "setting": "IFNγ; [2]", "value": 2, "unit": "pg/mL"}, {"measurement": "IFNγ", "setting": "IFNγ; [3]", "value": 2, "unit": "pg/mL"}, {"measurement": "IFNγ", "setting": "IFNγ; [4]", "value": 18, "unit": "pg/mL"}, {"measurement": "IFNγ", "setting": "IFNγ; [5]", "value": 54, "unit": "pg/mL"}, {"measurement": "IFNγ", "setting": "IFNγ; [6]", "value": 388, "unit": "pg/mL"}, {"measurement": "IFNγ", "setting": "IFNγ; [7]", "value": 227, "unit": "pg/mL"}, {"measurement": "IFNγ", "setting": "IFNγ; [8]", "value": 25, "unit": "pg/mL"}, {"measurement": "IFNγ", "setting": "IFNγ; [9]", "value": 12, "unit": "pg/mL"}]}, {"molecule": "B1", "values": [{"measurement": "proportion of HCW with latex allergy whose IgE reacts", "setting": "IgE; HCW", "value": 92, "unit": "%"}, {"measurement": "proportion of spina bifida patients with latex allergy whose IgE reacts", "setting": "IgE; spina bifida patients", "value": 56, "unit": "%"}]}]}
